# Test results from publication PMC7237647, “Synthesis, in vitro and in vivo evaluation of ^11C-O-methylated arylpiperazines as potential serotonin 1A (5-HT1A) receptor antagonist radiotracers” (EJNMMI Radiopharmacy and Chemistry, 2020).
# How the values were obtained:
# [1] = target: T1, 5-HT1B (Homo sapiens, UniProt P28222); assay: NIMH-PDSP radioligand binding assay, 5-HT1B
# T1 construct: NIMH-PDSP
# Protocol: (§1) . Cross selectivity for biogenic amines, neurotransmitter receptors, and transporters were determined by radioligand binding assays through NIMH- PDSP using validated and established protocols ([NIMH-PDSP Assay Protocol Book Version III, March 2018]).
# [2] = target: T2, 5-HT1E (Homo sapiens, UniProt P28566); assay: NIMH-PDSP radioligand binding assay, 5-HT1E
# T2 construct: NIMH-PDSP
# Protocol: as §1
# [3] = target: T3, 5-HT1D (Homo sapiens, UniProt P28221); assay: NIMH-PDSP radioligand binding assay, 5-HT1D
# T3 construct: NIMH-PDSP
# Protocol: as §1
# [4] = target: T4, 5-HT2A (Homo sapiens, UniProt P28223); assay: NIMH-PDSP radioligand binding assay, 5-HT2A
# T4 construct: NIMH-PDSP
# [5] = target: T5, 5-HT2B (Homo sapiens, UniProt P41595); assay: NIMH-PDSP radioligand binding assay, 5-HT2B
# T5 construct: NIMH-PDSP
# Protocol: as §1
# [6] = target: T6, 5-HT2C (Homo sapiens, UniProt P28335); assay: NIMH-PDSP radioligand binding assay, 5-HT2C
# T6 construct: NIMH-PDSP
# T6 sequence (P28335 33-458): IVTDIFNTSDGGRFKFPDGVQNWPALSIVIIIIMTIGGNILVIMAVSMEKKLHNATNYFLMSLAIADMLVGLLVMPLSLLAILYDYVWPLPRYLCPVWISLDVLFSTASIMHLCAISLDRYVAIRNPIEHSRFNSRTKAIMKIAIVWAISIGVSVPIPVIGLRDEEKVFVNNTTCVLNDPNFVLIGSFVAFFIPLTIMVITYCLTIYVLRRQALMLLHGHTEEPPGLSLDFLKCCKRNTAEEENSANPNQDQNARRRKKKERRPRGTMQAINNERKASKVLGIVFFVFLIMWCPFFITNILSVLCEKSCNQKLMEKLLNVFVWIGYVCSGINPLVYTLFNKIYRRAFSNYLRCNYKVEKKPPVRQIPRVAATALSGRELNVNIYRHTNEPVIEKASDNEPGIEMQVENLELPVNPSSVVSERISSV
# [7] = target: T7, 5-HT4 (Homo sapiens, UniProt Q13639); assay: NIMH-PDSP radioligand binding assay, 5-HT4
# T7 construct: NIMH-PDSP
# Protocol: as §1
# [8] = target: T8, 5-HT5a (Homo sapiens, UniProt P47898); assay: NIMH-PDSP radioligand binding assay, 5-HT5a
# T8 construct: NIMH-PDSP
# Protocol: as §1
# [9] = target: T9, 5-HT6 (Homo sapiens, UniProt P50406); assay: NIMH-PDSP radioligand binding assay, 5-HT6
# T9 construct: NIMH-PDSP
# Protocol: as §1
# [10] = target: T10, 5-HT7R (Homo sapiens, UniProt P34969); assay: NIMH-PDSP radioligand binding assay, 5-HT7R
# T10 construct: NIMH-PDSP
# [11] = target: T11, Alpha1A (Homo sapiens, UniProt P35348); assay: NIMH-PDSP radioligand binding assay, Alpha1A; settings: text b29 calls it α1-adrenergic receptors
# T11 construct: NIMH-PDSP
# [12] = target: T12, Alpha1B (Homo sapiens, UniProt P35368); assay: NIMH-PDSP radioligand binding assay, Alpha1B
# T12 construct: NIMH-PDSP
# [13] = target: T13, Alpha 2A (Homo sapiens, UniProt P08913); assay: NIMH-PDSP radioligand binding assay, Alpha 2A
# T13 construct: NIMH-PDSP
# [14] = target: T14, Alpha2B (Homo sapiens, UniProt P18089); assay: NIMH-PDSP radioligand binding assay, Alpha2B
# T14 construct: NIMH-PDSP
# [15] = target: T15, Alpha2C (Homo sapiens, UniProt P18825); assay: NIMH-PDSP radioligand binding assay, Alpha2C
# T15 construct: NIMH-PDSP
# [16] = target: T16, D4R (Homo sapiens, UniProt P21917); assay: NIMH-PDSP radioligand binding assay, D4R
# T16 construct: NIMH-PDSP
# T16 sequence (P21917 1-419): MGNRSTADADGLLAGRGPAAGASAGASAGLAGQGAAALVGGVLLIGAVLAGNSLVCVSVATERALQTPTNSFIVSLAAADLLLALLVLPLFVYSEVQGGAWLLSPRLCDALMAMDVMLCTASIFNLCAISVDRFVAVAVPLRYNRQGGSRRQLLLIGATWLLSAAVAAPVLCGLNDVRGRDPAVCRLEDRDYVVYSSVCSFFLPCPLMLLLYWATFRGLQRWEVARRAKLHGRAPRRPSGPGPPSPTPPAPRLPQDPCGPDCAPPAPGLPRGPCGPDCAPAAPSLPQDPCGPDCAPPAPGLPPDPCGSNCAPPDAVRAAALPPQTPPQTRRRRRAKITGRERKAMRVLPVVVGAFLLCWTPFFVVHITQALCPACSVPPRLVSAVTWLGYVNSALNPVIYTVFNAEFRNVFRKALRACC
# Protocol: as §1
# [17] = target: D1, D5; assay: NIMH-PDSP radioligand binding assay, D1, D5
# [18] = target: NET (Homo sapiens, UniProt P23975); assay: NIMH-PDSP radioligand binding assay, NET
# Protocol: as §1
# [19] = target: SERT (Homo sapiens, UniProt P31645); assay: NIMH-PDSP radioligand binding assay, SERT
# Protocol: as §1
# [20] = target: AMPA; assay: NIMH-PDSP radioligand binding assay, AMPA
# [21] = target: Beta Receptors; assay: NIMH-PDSP radioligand binding assay, Beta Receptors
# [22] = target: CB1, CB2; assay: NIMH-PDSP radioligand binding assay, CB1, CB2
# [23] = target: H1-H4; assay: NIMH-PDSP radioligand binding assay, H1-H4
# [24] = target: Muscarinic receptors; assay: NIMH-PDSP radioligand binding assay, Muscarinic receptors
# [25] = target: NMDA; assay: NIMH-PDSP radioligand binding assay, NMDA
# [26] = target: T17, NOP (Homo sapiens, UniProt P41146); assay: NIMH-PDSP radioligand binding assay, NOP
# T17 construct: NIMH-PDSP
# Protocol: as §1
# [27] = target: T18, PBR (Rattus norvegicus, UniProt P16257); assay: NIMH-PDSP radioligand binding assay, PBR
# T18 construct: NIMH-PDSP
# Protocol: as §1
# [28] = target: T19, Sigma1R (Homo sapiens, UniProt Q99720); assay: NIMH-PDSP radioligand binding assay, Sigma1R
# T19 construct: NIMH-PDSP
# Protocol: as §1
# [29] = target: T4, 5-HT2A; parameters: method as in ref Fiorino et al. [2012]; Fiorino et al. [2016]; Fiorino et al. [2017]; settings: previous preliminary pharmacological screening; ref Fiorino et al. [2012]; Fiorino et al. [2016]; Fiorino et al. [2017]; cited from earlier work
# T4 sequence (P28223 whole entry, species assumed): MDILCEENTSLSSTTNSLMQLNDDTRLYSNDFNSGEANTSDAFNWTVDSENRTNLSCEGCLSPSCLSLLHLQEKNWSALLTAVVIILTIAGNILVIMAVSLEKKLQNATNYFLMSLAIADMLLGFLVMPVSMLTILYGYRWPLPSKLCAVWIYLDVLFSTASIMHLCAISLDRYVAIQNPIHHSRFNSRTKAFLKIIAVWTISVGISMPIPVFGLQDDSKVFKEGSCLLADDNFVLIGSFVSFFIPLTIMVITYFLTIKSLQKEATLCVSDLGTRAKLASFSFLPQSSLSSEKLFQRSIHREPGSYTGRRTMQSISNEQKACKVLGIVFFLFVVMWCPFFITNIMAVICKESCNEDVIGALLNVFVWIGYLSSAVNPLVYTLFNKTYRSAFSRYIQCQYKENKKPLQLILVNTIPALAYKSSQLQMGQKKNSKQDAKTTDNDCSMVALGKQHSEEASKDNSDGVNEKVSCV
# T11 sequence (P35348 whole entry): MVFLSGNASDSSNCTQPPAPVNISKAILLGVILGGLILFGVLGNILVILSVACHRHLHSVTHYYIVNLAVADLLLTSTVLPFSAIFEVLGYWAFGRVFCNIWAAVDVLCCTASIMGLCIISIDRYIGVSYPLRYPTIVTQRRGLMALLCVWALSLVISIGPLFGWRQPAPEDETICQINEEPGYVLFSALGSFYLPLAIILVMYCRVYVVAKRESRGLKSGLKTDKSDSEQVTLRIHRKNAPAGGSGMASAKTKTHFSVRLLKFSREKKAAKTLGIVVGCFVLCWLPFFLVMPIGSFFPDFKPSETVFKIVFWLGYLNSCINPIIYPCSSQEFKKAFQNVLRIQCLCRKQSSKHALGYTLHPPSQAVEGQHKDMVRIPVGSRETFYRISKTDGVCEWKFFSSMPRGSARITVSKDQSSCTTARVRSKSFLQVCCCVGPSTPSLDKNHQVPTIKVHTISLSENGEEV
# T9 sequence (P50406 whole entry, species assumed): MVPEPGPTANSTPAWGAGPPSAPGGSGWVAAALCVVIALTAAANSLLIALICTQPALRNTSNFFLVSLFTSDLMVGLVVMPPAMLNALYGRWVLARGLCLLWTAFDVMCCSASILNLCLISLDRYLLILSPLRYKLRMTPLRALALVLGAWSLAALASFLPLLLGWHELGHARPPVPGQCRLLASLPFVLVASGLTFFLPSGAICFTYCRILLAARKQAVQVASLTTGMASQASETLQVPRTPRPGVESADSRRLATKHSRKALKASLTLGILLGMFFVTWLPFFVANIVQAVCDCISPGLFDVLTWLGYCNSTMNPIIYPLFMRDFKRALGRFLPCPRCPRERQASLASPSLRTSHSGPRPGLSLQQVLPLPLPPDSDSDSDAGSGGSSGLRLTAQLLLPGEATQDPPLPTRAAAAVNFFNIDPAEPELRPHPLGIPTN
# SERT, sequence (P31645 whole entry, species assumed): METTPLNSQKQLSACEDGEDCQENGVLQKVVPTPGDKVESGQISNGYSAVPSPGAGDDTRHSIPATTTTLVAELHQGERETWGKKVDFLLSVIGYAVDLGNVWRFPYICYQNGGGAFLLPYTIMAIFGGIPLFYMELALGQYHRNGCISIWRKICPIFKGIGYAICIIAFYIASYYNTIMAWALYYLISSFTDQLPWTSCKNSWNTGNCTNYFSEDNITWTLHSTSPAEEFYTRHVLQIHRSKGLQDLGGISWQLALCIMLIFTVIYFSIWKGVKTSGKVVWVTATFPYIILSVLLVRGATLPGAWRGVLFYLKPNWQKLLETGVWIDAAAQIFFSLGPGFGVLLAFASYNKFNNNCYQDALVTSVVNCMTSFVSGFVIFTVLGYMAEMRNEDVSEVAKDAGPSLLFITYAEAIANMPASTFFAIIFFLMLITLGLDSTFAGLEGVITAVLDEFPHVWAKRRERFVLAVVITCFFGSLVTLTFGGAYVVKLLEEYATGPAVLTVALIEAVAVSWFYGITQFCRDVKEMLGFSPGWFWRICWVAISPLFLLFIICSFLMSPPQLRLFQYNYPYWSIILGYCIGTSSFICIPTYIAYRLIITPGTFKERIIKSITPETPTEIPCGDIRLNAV
# T7 sequence (Q13639 whole entry, species assumed): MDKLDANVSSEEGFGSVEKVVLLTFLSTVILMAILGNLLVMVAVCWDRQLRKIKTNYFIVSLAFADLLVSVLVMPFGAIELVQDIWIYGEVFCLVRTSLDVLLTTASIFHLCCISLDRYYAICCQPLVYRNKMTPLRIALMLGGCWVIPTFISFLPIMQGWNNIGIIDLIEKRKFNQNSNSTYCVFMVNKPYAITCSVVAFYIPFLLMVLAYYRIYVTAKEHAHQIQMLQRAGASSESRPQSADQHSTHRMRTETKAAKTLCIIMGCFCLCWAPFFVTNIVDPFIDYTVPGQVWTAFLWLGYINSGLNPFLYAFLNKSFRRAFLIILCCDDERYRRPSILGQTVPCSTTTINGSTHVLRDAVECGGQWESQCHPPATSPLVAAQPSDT
# T10 sequence (P34969 whole entry): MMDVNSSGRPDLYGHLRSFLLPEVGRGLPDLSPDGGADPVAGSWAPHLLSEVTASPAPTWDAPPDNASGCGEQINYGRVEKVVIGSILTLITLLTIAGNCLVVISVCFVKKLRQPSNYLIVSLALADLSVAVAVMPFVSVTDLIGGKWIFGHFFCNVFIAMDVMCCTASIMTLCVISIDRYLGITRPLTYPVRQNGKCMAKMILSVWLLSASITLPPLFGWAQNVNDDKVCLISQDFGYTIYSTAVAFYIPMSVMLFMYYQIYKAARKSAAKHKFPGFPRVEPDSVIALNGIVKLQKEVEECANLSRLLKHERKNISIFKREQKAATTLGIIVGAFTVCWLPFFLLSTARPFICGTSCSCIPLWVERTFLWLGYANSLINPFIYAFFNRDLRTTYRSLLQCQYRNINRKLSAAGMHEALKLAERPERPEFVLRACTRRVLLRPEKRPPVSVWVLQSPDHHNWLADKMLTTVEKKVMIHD
# T12 sequence (P35368 whole entry): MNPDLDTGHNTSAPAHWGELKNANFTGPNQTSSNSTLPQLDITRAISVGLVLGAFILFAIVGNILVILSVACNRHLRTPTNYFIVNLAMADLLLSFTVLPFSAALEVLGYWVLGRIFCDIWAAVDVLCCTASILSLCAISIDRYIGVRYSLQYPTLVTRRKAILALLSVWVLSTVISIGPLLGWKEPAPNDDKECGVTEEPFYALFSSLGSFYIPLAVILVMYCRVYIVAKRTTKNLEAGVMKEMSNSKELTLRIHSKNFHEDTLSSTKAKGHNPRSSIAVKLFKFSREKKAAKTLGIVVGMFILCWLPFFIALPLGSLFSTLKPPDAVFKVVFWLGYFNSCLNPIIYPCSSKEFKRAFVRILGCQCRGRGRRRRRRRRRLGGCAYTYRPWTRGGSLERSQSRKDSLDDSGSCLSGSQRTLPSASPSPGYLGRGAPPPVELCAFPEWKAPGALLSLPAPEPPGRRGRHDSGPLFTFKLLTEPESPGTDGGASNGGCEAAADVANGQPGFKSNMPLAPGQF
# T19 sequence (Q99720 whole entry, species assumed): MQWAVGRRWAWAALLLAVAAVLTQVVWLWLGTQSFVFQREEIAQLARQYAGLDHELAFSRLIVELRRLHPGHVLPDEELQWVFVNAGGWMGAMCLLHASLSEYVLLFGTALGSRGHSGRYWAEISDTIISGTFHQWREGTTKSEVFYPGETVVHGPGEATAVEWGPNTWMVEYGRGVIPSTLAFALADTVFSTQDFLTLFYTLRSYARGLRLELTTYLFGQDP
# T13 sequence (P08913 whole entry): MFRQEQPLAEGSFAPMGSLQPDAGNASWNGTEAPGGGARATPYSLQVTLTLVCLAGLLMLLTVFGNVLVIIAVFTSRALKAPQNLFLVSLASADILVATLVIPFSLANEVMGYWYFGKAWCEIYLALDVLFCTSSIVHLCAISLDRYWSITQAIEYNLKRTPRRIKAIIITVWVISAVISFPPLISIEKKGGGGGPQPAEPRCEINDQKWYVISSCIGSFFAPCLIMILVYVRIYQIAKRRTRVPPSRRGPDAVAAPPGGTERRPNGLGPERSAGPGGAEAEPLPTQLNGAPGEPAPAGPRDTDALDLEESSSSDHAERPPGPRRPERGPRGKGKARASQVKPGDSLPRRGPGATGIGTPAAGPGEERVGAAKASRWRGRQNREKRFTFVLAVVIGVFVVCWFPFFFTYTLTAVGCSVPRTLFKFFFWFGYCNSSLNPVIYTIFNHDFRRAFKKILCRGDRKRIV
# T5 sequence (P41595 whole entry, species assumed): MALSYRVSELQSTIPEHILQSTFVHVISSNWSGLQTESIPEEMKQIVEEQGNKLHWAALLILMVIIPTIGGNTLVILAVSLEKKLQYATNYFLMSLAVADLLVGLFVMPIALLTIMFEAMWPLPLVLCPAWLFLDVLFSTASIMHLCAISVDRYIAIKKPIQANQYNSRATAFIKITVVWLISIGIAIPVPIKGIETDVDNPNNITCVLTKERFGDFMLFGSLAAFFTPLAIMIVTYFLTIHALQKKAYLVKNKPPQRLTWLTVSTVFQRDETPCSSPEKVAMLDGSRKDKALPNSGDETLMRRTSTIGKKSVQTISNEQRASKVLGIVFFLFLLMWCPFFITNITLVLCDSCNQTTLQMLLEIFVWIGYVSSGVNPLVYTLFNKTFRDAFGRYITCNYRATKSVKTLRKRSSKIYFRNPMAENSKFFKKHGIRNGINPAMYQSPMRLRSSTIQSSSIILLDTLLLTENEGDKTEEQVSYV
# T2 sequence (P28566 whole entry, species assumed): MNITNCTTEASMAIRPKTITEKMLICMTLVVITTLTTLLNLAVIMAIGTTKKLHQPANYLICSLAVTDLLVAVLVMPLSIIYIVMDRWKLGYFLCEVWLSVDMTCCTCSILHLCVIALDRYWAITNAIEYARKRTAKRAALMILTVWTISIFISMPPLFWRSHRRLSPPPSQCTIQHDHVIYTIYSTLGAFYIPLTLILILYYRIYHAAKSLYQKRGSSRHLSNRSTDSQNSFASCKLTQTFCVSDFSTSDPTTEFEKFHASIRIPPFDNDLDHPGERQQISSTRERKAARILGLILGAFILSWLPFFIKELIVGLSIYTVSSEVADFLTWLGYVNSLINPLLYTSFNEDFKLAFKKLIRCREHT
SMILES,Ki [1] [µM],Ki [2] [µM],Ki [3] [µM],Ki [4] [µM],Ki [5] [µM],Ki [6] [µM],Ki [7] [µM],Ki [8] [µM],Ki [9] [µM],Ki [10] [µM],Ki [11] [µM],Ki [12] [µM],Ki [13] [µM],Ki [14] [µM],Ki [15] [µM],Ki [16] [µM],Ki [17] [µM],Ki [18] [µM],Ki [19] [µM],Ki [20] [µM],other results
COc1ccccc1N1CCN(CCCN/C(=N\C#N)c2ccccn2)CC1 [Compound 1],> 10,> 10,> 10,> 10,0.403,> 10,> 10,> 10,> 10,0.076,0.129,1.08,0.453,0.67,0.835,0.137,> 10,> 10,> 10,> 10,Ki [21]: > 10 µM; Ki [22]: > 10 µM; Ki [23]: > 10 µM; Ki [24]: > 10 µM; Ki [25]: > 10 µM; Ki [26]: > 10 µM; Ki [27]: > 10 µM; Ki [28]: 0.52 µM; affinity to 5-HT2A [29]: high affinities
COc1ccccc1N1CCN(CCNC(=O)c2ccccn2)CC1 [Compound 2],> 10,> 10,> 10,> 10,0.516,> 10,> 10,> 10,> 10,0.83,0.046,0.254,> 10,> 10,> 10,0.088,> 10,> 10,> 10,> 10,Ki [21]: > 10 µM; Ki [22]: > 10 µM; Ki [23]: > 10 µM; Ki [24]: > 10 µM; Ki [25]: > 10 µM; Ki [26]: > 10 µM; Ki [27]: > 10 µM; Ki [28]: > 10 µM; affinity to 5-HT2A [29]: high affinities
